Counter-ions that a name gives are not always drawn.
Legend:
Bcl-2 protein = Bcl-2 protein (histag-Bcl-2, UniProtKB P10415) (Homo sapiens (Human), UniProt P10415); assay: Inhibition of Bcl-2 by the fluorescence polarisation technique; type: binding; conditions: incubation for 2 hours, read-out: IC50 (nM) Bcl-2 FP
Summary of the method: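 Fluorescence polarisation competition: His-tagged Bcl-2 (2.50×10^−8 M final) with fluorescein-labelled peptide (1.00×10^−8 M final) in 10 mM Hepes, 150 mM NaCl, 0.05% Tween20, pH 7.4. Increasing compound concentrations were added. Polarisation was read after 2 h incubation.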

[1] = system: RS4;11 leukaemia tumour line; assay: In vitro cytotoxicity (Microculture Tetrazolium Assay); type: cell-based; conditions: Homo sapiens, RS4-11, 48 h, RS4;11 cells, exposed for 48 hours, cell viability; read-out: IC50 (nM) MTT RS4;11
Procedure: The cytotoxicity studies were carried out on the RS4;11 leukaemia tumour line.
The cells are distributed onto microplates and exposed to the test compounds for 48 hours.
The cell viability is then quantified by a colorimetric assay, the Microculture Tetrazolium Assay (Cancer Res., 1987, 47, 939-942).

Sequence of Bcl-2 protein (P10415 whole entry): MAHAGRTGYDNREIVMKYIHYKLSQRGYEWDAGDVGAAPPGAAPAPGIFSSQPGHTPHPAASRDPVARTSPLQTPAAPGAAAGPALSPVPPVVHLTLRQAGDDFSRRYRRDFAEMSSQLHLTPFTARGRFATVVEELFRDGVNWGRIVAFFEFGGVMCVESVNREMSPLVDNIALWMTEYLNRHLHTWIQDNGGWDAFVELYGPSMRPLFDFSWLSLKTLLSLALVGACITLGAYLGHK

| Compound | IC50 (Bcl-2 protein) [nM] | IC50 [1] [nM] |
| --- | --- | --- |
| Cc1c(C(=O)N(c2ccc(O)cc2)c2cnn(C)c2)cc(-c2cc3c(cc2C(=O)N2Cc4ccccc4C[C@H]2C)OCO3)n1CCO [Example 23, 1-(2-Hydroxyethyl)-N-(4-hydroxyphenyl)-2-methyl-5-(6-{[(3R)-3-methyl-3,4-dihydroisoquinolin-2(1H)-yl]carbonyl}-1,3-benzodioxol-5-yl)-N-(1-methyl-1H-pyrazol-4-yl)-1H-pyrrole-3-carboxamide] | 3.6 | 25.4 |
| Cc1c(C(=O)N(c2ccccc2)c2ccc(O)cc2)cc(-c2cc(F)ccc2C(=O)N2Cc3ccccc3C[C@H]2CN2CCOCC2)n1C [Example 10, 5-(5-Fluoro-2-{[(3S)-3-(morpholin-4-ylmethyl)-3,4-dihydroisoquinolin-2(1H)-yl]carbonyl}phenyl)-N-(4-hydroxyphenyl)-1,2-dimethyl-N-phenyl-1H-pyrrole-3-carboxamide hydrochloride] | 16.2 | 205 |
| Cc1c(C(=O)N(c2ccccc2)c2ccc(O)cc2)cc(-c2cc(Cl)ccc2C(=O)N2Cc3ccccc3C[C@H]2CCCN2CCOCC2)n1C [Example 392, 5-(5-Chloro-2-{[(3R)-3-[3-(morpholin-4-yl)propyl]-3,4-dihydroisoquinolin-2(1H)-yl]carbonyl}phenyl)-N-(4-hydroxyphenyl)-1,2-dimethyl-N-phenyl-1H-pyrrole-3-carboxamide hydrochloride] | 3.8 | 11.4 |
| Cc1c(C(=O)N(C)c2ccc(O)cc2)cc(-c2cc(CCNC(=O)Nc3ccccc3)ccc2C(=O)N2Cc3ccccc3C[C@H]2C)n1C [Example 58, N-(4-Hydroxyphenyl)-N,1,2-trimethyl-5-(2-{[(3R)-3-methyl-3,4-dihydroisoquinolin-2(1H)-yl]carbonyl}-5-{2-[(phenylcarbamoyl)amino]ethyl}phenyl)-1H-pyrrole-3-carboxamide] | 133 | > 600 |
| Cc1nn(C)cc1N(C(=O)c1cc(-c2cc(Cl)ccc2C(=O)N2Cc3ccccc3C[C@H]2CN2CCOCC2)n(C)c1C)c1ccc(O)cc1 [Example 431, 5-(5-Chloro-2-{[(3S)-3-(morpholin-4-ylmethyl)-3,4-dihydroisoquinolin-2(1H)-yl]carbonyl}phenyl)-N-(1,3-dimethyl-1H-pyrazol-4-yl)-N-(4-hydroxyphenyl)-1,2-dimethyl-1H-pyrrole-3-carboxamide hydrochloride] | 3 | 89 |
| Cc1c(C(=O)N(c2ccncc2)c2ccc(O)cc2)cc(-c2cc(Cl)ccc2C(=O)N2Cc3ccccc3C[C@H]2CN2CCOCC2)n1C [Example 74, 5-(5-Chloro-2-{[(3S)-3-(morpholin-4-ylmethyl)-3,4-dihydroisoquinolin-2(1H)-yl]carbonyl}phenyl)-N-(4-hydroxyphenyl)-1,2-dimethyl-N-(pyridin-4-yl)-1H-pyrrole-3-carboxamide hydrochloride] | 4 | 45.4 |
| COCCc1c(C(=O)N(c2ccc(O)cc2)c2cnc3c(c2)CCN3C)cc(-c2cc3c(cc2C(=O)N2Cc4ccccc4C[C@H]2CN2CCOCC2)OCO3)n1C [Example 358, N-(4-Hydroxyphenyl)-2-(2-methoxyethyl)-1-methyl-N-(1-methyl-2,3-dihydro-1H-pyrrolo[2,3-b]pyridin-5-yl)-5-(6-{[(3S)-3-(morpholin-4-ylmethyl)-3,4-dihydroisoquinolin-2(1H)-yl]carbonyl}-1,3-benzodioxol-5-yl)-1H-pyrrole-3-carboxamide hydrochloride] | 14.8 | 165 |
| COc1cc(-c2cc(C(=O)N(c3ccc(O)cc3)c3cnn(C)c3)c(C)n2C)c(C(=O)N2Cc3ccccc3C[C@H]2CN2CCOCC2)cc1F [Example 101, 5-(4-Fluoro-5-methoxy-2-{[(3S)-3-(morpholin-4-ylmethyl)-3,4-dihydroisoquinolin-2(1H)-yl]carbonyl}phenyl)-N-(4-hydroxyphenyl)-1,2-dimethyl-N-(1-methyl-1H-pyrazol-4-yl)-1H-pyrrole-3-carboxamide hydrochloride] | 21.1 | 743 |
| COc1ccc(C(=O)N2Cc3ccccc3C[C@H]2CN2CCOCC2)c(-c2cc(C(=O)N(c3ccc(O)c(F)c3)c3cnn(C)c3)c(C)n2C)c1 [Example 407, N-(3-Fluoro-4-hydroxyphenyl)-5-(5-methoxy-2-{[(3S)-3-(morpholin-4-ylmethyl)-3,4-dihydroisoquinolin-2(1H)-yl]carbonyl}phenyl)-1,2-dimethyl-N-(1-methyl-1H-pyrazol-4-yl)-1H-pyrrole-3-carboxamide hydrochloride] | 20.6 | 150 |
| COc1cc(C(=O)N2Cc3ccccc3C[C@H]2CN2CCOCC2)c(-c2cc(C(=O)N(c3ccc(O)cc3)c3cc(C#N)ccn3)c(C)n2C)cc1F [Example 435, N-(4-Cyanopyridin-2-yl)-5-(5-fluoro-4-methoxy-2-{[(3S)-3-(morpholin-4-ylmethyl)-3,4-dihydroisoquinolin-2(1H)-yl]carbonyl}phenyl)-N-(4-hydroxyphenyl)-1,2-dimethyl-1H-pyrrole-3-carboxamide hydrochloride] | 14.9 | 441 |
| Cc1c(C(=O)N(c2ccccc2)c2ccc(O)cc2)cc(-c2cc(Cl)ccc2C(=O)N2CCc3ccccc3C2)n1C [Example 467, 5-(5-Chloro-2-{[3,4-dihydroisoquinolin-2(1H)-yl]carbonyl}phenyl)-N-(4-hydroxyphenyl)-1,2-dimethyl-N-phenyl-1H-pyrrole-3-carboxamide] | 19.2 | 188 |
| Cc1c(C(=O)N(c2ccc(O)cc2)c2cc(C#N)n(C)c2)cc(-c2ccccc2C(=O)N2Cc3ccccc3C[C@H]2CN2CCOCC2)n1C [Example 433, N-(5-Cyano-1-methyl-1H-pyrrol-3-yl)-N-(4-hydroxyphenyl)-1,2-dimethyl-5-(2-{[(3S)-3-(morpholin-4-ylmethyl)-3,4-dihydroisoquinolin-2(1H)-yl]carbonyl}phenyl)-1H-pyrrole-3-carboxamide hydrochloride] | 2.6 | 48.2 |
| Cc1c(C(=O)N(C)c2ccc(O)cc2)cc(-c2cc(CCNC(=O)NCc3ccccc3)ccc2C(=O)N2Cc3ccccc3C[C@H]2C)n1C [Example 56, 5-(5-{2-[(Benzylcarbamoyl)amino]ethyl}-2-{[(3R)-3-methyl-3,4-dihydroisoquinolin-2(1H)-yl]carbonyl}phenyl)-N-(4-hydroxyphenyl)-N,1,2-trimethyl-1H-pyrrole-3-carboxamide] | 75 | > 600 |
| COc1ncc(N(C(=O)c2cc(-c3ccccc3C(=O)N3Cc4ccccc4C[C@H]3CN3CCOCC3)n(C)c2C)c2ccc(O)cc2)cn1 [Example 424, N-(4-Hydroxyphenyl)-N-(2-methoxypyrimidin-5-yl)-1,2-dimethyl-5-(2-{[(3S)-3-(morpholin-4-ylmethyl)-3,4-dihydroisoquinolin-2(1H)-yl]carbonyl}phenyl)-1H-pyrrole-3-carboxamide hydrochloride] | 13.6 | 102 |
| Cc1c(C(=O)N(c2ccncc2)c2ccc(O)cc2)cc(-c2cc3c(cc2C(=O)N2Cc4ccccc4C[C@H]2CN2CCOCC2)OCO3)n1C [Example 73, N-(4-Hydroxyphenyl)-1,2-dimethyl-5-(6-{[(3S)-3-(morpholin-4-ylmethyl)-3,4-dihydroisoquinolin-2(1H)-yl]carbonyl}-1,3-benzodioxol-5-yl)-N-(pyridin-4-yl)-1H-pyrrole-3-carboxamide dihydrochloride] | 8 | 42.6 |
| Cc1c(C(=O)N(c2ccc(O)cc2)c2cc(C#N)n(CCN3CCOCC3)c2C)cc(-c2cc(Cl)ccc2C(=O)N2Cc3ccccc3C[C@H]2C)n1C [Example 455, 5-(5-Chloro-2-{[(3R)-3-methyl-3,4-dihydroisoquinolin-2(1H)-yl]-carbonyl}phenyl)-N-{5-cyano-2-methyl-1-[2-(morpholin-4-yl)ethyl]-1H-pyrrol-3-yl}-N-(4-hydroxyphenyl)-1,2-dimethyl-1H-pyrrole-3-carboxamide hydrochloride] | 1.9 | 11.8 |
| Cc1c(C(=O)N(c2ccccc2)c2ccc(O)cc2)cc(-c2cc(F)ccc2C(=O)N2Cc3ccccc3C[C@H]2CN2CCOCC2)n1CCCO [Example 11, 5-(5-Fluoro-2-{[(3S)-3-(morpholin-4-ylmethyl)-3,4-dihydroisoquinolin-2(1H)-yl]carbonyl}phenyl)-N-(4-hydroxyphenyl)-1-(3-hydroxypropyl)-2-methyl-N-phenyl-1H-pyrrole-3-carboxamide hydrochloride] | 14.2 | 202 |
| COCCN(C)CCn1c(-c2cc3c(cc2C(=O)N2Cc4ccccc4C[C@H]2C)OCO3)cc(C(=O)N(c2ccc(O)cc2)c2cnn(C)c2)c1C [Example 99, N-(4-Hydroxyphenyl)-1-{2-[(2-methoxyethyl)(methyl)amino]ethyl}-2-methyl-5-(6-{[(3R)-3-methyl-3,4-dihydroisoquinolin-2(1H)-yl]carbonyl}-1,3-benzodioxol-5-yl)-N-(1-methyl-1H-pyrazol-4-yl)-1H-pyrrole-3-carboxamide hydrochloride] | 6.4 | 108 |
| Cc1c(C(=O)N(c2ccc(O)cc2)c2cccc(C#N)n2)cc(-c2cc(Cl)ccc2C(=O)N2Cc3ccccc3C[C@H]2CN2CCOCC2)n1C [Example 109, 5-(5-Chloro-2-{[(3S)-3-(morpholin-4-ylmethyl)-3,4-dihydroisoquinolin-2(1H)-yl]carbonyl}phenyl)-N-(6-cyanopyridin-2-yl)-N-(4-hydroxyphenyl)-1,2-dimethyl-1H-pyrrole-3-carboxamide hydrochloride] | 91.5 | 930 |

Source: US9108983B2, “Pyrrole compounds, a process for their preparation and pharmaceutical compositions containing them” (LES LABORATOIRES SERVIER, priority 2013, dated 2015)
